Test results taken from ChEMBL document CHEMBL1641460, “Potent and selective thiophene urea-templated inhibitors of S6K” (Bioorg Med Chem Lett, 2011).
≈ marks a conversion by molar mass, not a printed value.

Legend:
[1] = biological target: Epidermal growth factor receptor (Homo sapiens) (UniProt P00533); experiment: Inhibition of EGFR at 10 uM
[2] = biological target: Casein kinase I isoform delta (Homo sapiens) (UniProt P48730); experiment: Inhibition of CSNK1D at 1 uM
[3] = biological target: Insulin receptor (Homo sapiens) (UniProt P06213); experiment: Inhibition of INSR at 1 uM
[4] = biological target: Serine/threonine-protein kinase TAO3 (Homo sapiens) (UniProt Q9H2K8); experiment: Inhibition of TAOK3 at 10 uM
[5] = biological target: Inhibitor of nuclear factor kappa-B kinase subunit epsilon (Homo sapiens) (UniProt Q14164); experiment: Inhibition of IKBKE at 1 uM
[6] = biological target: Cyclin-dependent kinase 6 (Homo sapiens) (UniProt Q00534); experiment: Inhibition of CDK6 at 1 uM
[7] = biological target: Cyclin-dependent kinase 2 (Homo sapiens) (UniProt P24941); experiment: Inhibition of CDK2 at 1 uM
CYP3A4 = CYP3A4 (Homo sapiens, UniProt P08684); experiment: Inhibition of CYP3A4 at 3 uM by LC/MS/MS analysis; format: ADME
[8] = biological target: Mitogen-activated protein kinase 1 (Homo sapiens) (UniProt P28482); experiment: Inhibition of MAPK1 at 10 uM
[9] = biological target: Serine/threonine-protein kinase pim-2 (Homo sapiens) (UniProt Q9P1W9); experiment: Inhibition of PIM2 at 10 uM
[10] = biological target: Serine/threonine-protein kinase Sgk1 (Homo sapiens) (UniProt O00141); experiment: Inhibition of SGK1 at 1 uM
[11] = biological target: Serine/threonine-protein kinase Sgk1 (Homo sapiens) (UniProt O00141); experiment: Inhibition of SGK1 at 10 uM
[12] = biological target: Casein kinase I isoform delta (Homo sapiens) (UniProt P48730); experiment: Inhibition of CSNK1D at 10 uM
[13] = biological target: Proto-oncogene tyrosine-protein kinase Src (Homo sapiens) (UniProt P12931); experiment: Inhibition of SRC at 10 uM
[14] = biological target: Rho-associated protein kinase 1 (Homo sapiens) (UniProt Q13464); experiment: Inhibition of ROCK1 at 1 uM
[15] = biological target: Tyrosine-protein kinase Lck (Homo sapiens) (UniProt P06239); experiment: Inhibition of LCK at 10 uM
[16] = biological target: RAC-alpha serine/threonine-protein kinase (Homo sapiens) (UniProt P31749); experiment: Inhibition of AKT1 at 10 uM
CYP1A2 = biological target: T1, CYP1A2 (Homo sapiens, UniProt P05177); experiment: Inhibition of CYP1A2 at 3 uM by LC/MS/MS analysis; format: ADME
T1 sequence (P05177 whole entry): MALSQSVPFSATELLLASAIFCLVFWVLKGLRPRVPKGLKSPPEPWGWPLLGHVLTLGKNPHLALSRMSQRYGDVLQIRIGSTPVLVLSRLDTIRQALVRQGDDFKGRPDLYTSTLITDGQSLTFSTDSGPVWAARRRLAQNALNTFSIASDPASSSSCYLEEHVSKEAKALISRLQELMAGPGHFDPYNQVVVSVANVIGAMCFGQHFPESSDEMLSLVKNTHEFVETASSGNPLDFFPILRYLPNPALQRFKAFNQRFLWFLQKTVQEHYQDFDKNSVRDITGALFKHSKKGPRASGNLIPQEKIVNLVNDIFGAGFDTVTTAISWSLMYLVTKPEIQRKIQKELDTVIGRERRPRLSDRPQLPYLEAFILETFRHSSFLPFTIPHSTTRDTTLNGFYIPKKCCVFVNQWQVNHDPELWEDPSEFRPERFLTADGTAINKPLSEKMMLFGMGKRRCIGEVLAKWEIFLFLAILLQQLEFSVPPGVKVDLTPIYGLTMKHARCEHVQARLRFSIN

[17] = biological target: Aurora kinase A (Homo sapiens) (UniProt O14965); experiment: Inhibition of aurora A at 1 uM
[18] = biological target: Serine/threonine-protein kinase pim-2 (Homo sapiens) (UniProt Q9P1W9); experiment: Inhibition of PIM2 at 1 uM
[19] = biological target: Mitogen-activated protein kinase kinase kinase 9 (Homo sapiens) (UniProt P80192); experiment: Inhibition of MAP3K9 at 10 uM
[20] = biological target: Hepatocyte growth factor receptor (Homo sapiens) (UniProt P08581); experiment: Inhibition of MET at 1 uM
[21] = biological target: Calcium/calmodulin-dependent protein kinase type 1 (Homo sapiens) (UniProt Q14012); experiment: Inhibition of CAMK1 at 10 uM
[22] = biological target: Protein kinase C beta type (Homo sapiens) (UniProt P05771); experiment: Inhibition of PRKCB at 1 uM
[23] = biological target: Tyrosine-protein kinase BTK (Homo sapiens) (UniProt Q06187); experiment: Inhibition of BTK at 10 uM
[24] = biological target: Serine/threonine-protein kinase Chk1 (Homo sapiens) (UniProt O14757); experiment: Inhibition of CHEK1 at 10 uM
[25] = biological target: cAMP-dependent protein kinase catalytic subunit alpha (Homo sapiens) (UniProt P17612); experiment: Inhibition of PRKACA at 1 uM
[26] = biological target: Ribosomal protein S6 kinase beta-1 (Homo sapiens, UniProt P23443); experiment: Inhibition of S6K1
[27] = biological target: Myosin light chain kinase 2, skeletal/cardiac muscle (Homo sapiens) (UniProt Q9H1R3); experiment: Inhibition of MYLK2 at 10 uM
[28] = biological target: Casein kinase II subunit alpha (Homo sapiens) (UniProt P68400); experiment: Inhibition of CSNK2A1 at 1 uM
[29] = biological target: Vascular endothelial growth factor receptor 2 (Homo sapiens) (UniProt P35968); experiment: Inhibition of KDR at 10 uM
[30] = biological target: Insulin receptor (Homo sapiens) (UniProt P06213); experiment: Inhibition of INSR at 10 uM
[31] = biological target: Serine/threonine-protein kinase TAO3 (Homo sapiens) (UniProt Q9H2K8); experiment: Inhibition of TAOK3 at 1 uM
[32] = biological target: Inhibitor of nuclear factor kappa-B kinase subunit beta (Homo sapiens) (UniProt O14920); experiment: Inhibition of IKBKB at 1 uM
CYP2D6 = CYP2D6 (Homo sapiens, UniProt P10635); experiment: Inhibition of CYP2D6 at 3 uM by LC/MS/MS analysis; format: ADME
[33] = biological target: Dual specificity protein kinase CLK1 (Homo sapiens) (UniProt P49759); experiment: Inhibition of CLK1 at 10 uM
[34] = biological target: Ephrin type-A receptor 2 (Homo sapiens) (UniProt P29317); experiment: Inhibition of EPHA2 at 10 uM
[35] = biological target: Vascular endothelial growth factor receptor 2 (Homo sapiens) (UniProt P35968); experiment: Inhibition of KDR at 1 uM
[36] = biological target: Myosin light chain kinase 2, skeletal/cardiac muscle (Homo sapiens) (UniProt Q9H1R3); experiment: Inhibition of MYLK2 at 1 uM
[37] = biological target: Serine/threonine-protein kinase Chk2 (Homo sapiens) (UniProt O96017); experiment: Inhibition of CHEK2 at 1 uM
[38] = biological target: MAP kinase-activated protein kinase 2 (Homo sapiens) (UniProt P49137); experiment: Inhibition of MAPKAPK2 at 10 uM
[39] = biological target: Hepatocyte growth factor receptor (Homo sapiens) (UniProt P08581); experiment: Inhibition of MET at 10 uM
[40] = biological target: Dual specificity protein kinase CLK1 (Homo sapiens) (UniProt P49759); experiment: Inhibition of CLK1 at 1 uM
[41] = biological target: Serine/threonine-protein kinase Nek2 (Homo sapiens) (UniProt P51955); experiment: Inhibition of NEK2 at 10 uM
[42] = biological target: cAMP-dependent protein kinase catalytic subunit alpha (Homo sapiens) (UniProt P17612); experiment: Inhibition of PRKACA at 10 uM
[43] = Kinetic solubility of the compound in 50 mM phosphate buffer at pH 6.5; format: physicochemical

Sequence of Dual specificity protein kinase CLK1 (Homo sapiens) (P49759 whole entry, looked up): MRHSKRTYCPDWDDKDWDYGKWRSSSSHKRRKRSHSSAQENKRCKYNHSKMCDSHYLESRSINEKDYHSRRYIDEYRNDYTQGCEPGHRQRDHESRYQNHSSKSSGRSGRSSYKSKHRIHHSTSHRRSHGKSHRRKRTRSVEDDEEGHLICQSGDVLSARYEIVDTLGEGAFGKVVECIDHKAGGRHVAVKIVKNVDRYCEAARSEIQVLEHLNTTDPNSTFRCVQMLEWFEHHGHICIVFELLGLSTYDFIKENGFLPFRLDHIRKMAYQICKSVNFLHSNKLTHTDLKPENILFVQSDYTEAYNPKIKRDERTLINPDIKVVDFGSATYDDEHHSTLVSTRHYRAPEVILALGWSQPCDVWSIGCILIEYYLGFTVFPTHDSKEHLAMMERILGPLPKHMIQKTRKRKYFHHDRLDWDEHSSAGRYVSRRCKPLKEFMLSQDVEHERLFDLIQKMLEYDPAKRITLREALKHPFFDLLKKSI
Sequence of Insulin receptor (Homo sapiens) (P06213 28-758 limits assumed): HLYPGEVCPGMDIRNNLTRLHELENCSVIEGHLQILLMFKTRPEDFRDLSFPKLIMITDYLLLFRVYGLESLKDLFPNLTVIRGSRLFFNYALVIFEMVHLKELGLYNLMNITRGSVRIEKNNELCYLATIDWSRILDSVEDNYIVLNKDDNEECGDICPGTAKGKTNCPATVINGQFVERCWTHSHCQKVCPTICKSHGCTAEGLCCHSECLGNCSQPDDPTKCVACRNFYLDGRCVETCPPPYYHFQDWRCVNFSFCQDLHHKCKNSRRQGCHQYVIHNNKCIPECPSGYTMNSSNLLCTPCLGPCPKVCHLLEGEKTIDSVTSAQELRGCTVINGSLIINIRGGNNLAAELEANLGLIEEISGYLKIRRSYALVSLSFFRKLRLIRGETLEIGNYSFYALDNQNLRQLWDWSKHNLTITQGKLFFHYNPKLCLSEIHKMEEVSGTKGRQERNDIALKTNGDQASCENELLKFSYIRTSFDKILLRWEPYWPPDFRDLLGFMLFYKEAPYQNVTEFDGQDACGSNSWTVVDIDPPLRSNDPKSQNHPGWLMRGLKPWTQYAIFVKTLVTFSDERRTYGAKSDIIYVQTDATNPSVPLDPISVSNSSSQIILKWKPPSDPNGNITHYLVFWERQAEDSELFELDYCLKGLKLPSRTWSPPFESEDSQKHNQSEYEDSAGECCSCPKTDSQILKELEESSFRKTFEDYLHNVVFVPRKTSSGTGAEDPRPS
Sequence of Insulin receptor (Homo sapiens) (P06213 763-1382 limits assumed): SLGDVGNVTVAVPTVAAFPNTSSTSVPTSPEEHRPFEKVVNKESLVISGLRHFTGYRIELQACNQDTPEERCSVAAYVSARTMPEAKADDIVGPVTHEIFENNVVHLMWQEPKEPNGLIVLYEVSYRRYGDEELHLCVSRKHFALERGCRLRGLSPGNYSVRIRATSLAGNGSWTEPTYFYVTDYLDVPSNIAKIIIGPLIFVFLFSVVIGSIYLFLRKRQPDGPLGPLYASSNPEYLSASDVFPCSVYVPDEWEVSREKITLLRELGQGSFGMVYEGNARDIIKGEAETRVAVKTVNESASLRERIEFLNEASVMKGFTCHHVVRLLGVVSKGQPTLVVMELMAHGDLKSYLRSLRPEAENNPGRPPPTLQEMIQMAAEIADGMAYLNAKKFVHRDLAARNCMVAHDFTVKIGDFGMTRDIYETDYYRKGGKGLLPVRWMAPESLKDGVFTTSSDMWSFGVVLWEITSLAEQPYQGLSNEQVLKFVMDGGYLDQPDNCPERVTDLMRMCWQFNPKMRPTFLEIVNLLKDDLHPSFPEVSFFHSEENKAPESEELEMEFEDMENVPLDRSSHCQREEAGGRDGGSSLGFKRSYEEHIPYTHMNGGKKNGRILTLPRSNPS
Sequence of Myosin light chain kinase 2, skeletal/cardiac muscle (Homo sapiens) (Q9H1R3 whole entry): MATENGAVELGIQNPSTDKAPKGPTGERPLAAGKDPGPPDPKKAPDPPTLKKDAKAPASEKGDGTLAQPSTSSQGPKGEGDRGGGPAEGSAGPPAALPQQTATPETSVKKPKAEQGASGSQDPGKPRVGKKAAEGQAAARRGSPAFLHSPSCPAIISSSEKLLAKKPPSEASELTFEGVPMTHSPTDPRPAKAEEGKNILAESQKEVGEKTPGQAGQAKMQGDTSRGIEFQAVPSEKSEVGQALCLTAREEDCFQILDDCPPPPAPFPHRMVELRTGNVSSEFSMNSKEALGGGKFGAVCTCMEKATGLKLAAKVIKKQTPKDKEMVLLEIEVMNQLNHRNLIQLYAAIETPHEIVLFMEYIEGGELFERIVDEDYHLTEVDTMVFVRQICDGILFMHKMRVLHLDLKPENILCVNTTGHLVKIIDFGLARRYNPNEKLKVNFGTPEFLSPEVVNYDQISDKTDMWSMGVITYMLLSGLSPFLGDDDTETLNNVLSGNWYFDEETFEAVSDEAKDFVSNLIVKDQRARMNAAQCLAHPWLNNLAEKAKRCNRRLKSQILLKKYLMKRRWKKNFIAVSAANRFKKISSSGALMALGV
Sequence of Serine/threonine-protein kinase TAO3 (Homo sapiens) (Q9H2K8 whole entry): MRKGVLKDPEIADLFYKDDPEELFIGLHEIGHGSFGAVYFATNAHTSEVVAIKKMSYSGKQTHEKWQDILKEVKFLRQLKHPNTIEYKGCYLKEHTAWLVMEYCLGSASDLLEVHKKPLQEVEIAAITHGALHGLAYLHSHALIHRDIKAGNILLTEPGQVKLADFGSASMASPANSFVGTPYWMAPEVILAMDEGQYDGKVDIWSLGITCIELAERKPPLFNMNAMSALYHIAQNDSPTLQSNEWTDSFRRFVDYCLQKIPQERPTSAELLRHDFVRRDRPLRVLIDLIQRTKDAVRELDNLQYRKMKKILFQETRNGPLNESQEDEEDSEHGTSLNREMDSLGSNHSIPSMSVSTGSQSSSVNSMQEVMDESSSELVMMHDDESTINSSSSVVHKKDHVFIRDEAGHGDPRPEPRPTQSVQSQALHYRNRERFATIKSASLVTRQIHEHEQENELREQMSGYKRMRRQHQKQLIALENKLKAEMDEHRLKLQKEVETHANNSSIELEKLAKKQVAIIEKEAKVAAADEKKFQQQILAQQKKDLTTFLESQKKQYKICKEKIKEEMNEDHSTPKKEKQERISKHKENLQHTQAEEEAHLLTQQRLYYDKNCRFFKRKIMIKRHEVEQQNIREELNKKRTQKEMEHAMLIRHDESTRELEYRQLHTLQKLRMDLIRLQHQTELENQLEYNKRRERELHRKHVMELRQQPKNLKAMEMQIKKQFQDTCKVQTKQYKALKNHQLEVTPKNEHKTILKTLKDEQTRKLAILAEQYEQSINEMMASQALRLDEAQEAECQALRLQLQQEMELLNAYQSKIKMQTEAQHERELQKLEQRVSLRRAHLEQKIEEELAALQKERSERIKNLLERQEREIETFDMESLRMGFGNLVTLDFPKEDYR
Sequence of Serine/threonine-protein kinase pim-2 (Homo sapiens) (Q9P1W9 whole entry, looked up): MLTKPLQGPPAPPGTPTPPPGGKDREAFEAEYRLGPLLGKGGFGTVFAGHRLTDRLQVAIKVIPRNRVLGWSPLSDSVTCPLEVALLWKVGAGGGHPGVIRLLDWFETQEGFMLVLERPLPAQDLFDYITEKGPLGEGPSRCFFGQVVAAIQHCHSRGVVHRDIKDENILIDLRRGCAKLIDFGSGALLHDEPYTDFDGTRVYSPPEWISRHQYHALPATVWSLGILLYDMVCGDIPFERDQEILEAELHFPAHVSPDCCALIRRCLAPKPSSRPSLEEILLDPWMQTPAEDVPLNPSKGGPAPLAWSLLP
Sequence of Vascular endothelial growth factor receptor 2 (Homo sapiens) (P35968 whole entry): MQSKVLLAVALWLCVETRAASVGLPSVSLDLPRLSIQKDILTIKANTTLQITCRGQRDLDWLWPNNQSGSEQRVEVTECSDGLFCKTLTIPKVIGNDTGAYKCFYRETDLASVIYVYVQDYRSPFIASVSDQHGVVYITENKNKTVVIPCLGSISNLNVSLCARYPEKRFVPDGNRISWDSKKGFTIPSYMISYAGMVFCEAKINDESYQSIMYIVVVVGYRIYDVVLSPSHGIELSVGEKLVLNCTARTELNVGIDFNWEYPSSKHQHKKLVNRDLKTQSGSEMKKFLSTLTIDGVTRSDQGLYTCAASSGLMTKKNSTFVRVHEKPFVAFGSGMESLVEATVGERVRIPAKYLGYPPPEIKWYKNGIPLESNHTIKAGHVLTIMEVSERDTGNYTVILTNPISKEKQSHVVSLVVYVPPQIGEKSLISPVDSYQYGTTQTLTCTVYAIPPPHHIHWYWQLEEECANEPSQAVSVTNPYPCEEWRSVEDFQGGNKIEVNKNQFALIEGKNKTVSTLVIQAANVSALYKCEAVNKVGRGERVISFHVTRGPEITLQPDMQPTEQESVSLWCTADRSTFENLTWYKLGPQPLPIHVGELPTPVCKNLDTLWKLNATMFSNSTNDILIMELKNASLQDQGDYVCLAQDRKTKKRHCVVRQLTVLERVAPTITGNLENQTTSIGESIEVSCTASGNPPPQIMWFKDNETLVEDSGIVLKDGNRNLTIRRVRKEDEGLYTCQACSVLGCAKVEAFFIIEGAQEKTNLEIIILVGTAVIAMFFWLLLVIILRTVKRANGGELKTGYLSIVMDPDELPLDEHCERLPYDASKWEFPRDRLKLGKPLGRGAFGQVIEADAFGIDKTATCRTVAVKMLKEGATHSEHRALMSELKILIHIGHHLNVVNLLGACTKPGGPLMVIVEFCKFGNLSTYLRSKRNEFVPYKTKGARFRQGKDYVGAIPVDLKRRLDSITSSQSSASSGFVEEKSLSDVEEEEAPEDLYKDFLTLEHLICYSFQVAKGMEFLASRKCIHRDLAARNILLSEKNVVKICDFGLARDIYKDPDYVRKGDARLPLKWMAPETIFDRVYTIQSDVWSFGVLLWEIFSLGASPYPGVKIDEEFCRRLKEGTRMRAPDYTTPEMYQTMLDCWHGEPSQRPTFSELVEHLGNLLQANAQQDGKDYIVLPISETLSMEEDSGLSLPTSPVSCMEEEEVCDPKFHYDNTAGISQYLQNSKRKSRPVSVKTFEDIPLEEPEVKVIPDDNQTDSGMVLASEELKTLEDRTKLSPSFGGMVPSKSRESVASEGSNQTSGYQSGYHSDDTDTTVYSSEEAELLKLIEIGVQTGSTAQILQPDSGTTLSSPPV

CC(C)(C)c1cc(C(=O)O)c(NC(=O)Nc2ccc3[nH]ncc3c2)s1
inhibition [1]: 10% | inhibition [2]: 20% | inhibition [3]: 0% | inhibition [4]: 10% | inhibition [5]: 10% | inhibition [6]: 0% | inhibition [7]: 10% | inhibition at 3 µM (CYP3A4): 0% | inhibition [8]: 10% | inhibition [9]: 0% | inhibition [10]: 0% | inhibition [11]: 0% | inhibition [12]: 20% | inhibition [13]: 0% | inhibition [14]: 10% | inhibition [15]: 0% | inhibition [16]: 0% | inhibition at 3 µM (CYP1A2): 6% | inhibition [17]: 0% | inhibition [18]: 0% | inhibition [19]: 20% | inhibition [20]: 0% | inhibition [21]: 10% | inhibition [22]: 10% | inhibition [23]: 0% | inhibition [24]: 10% | inhibition [25]: 10% | IC50 [26]: 0.052 µM | inhibition [27]: 10% | inhibition [28]: 30% | inhibition [29]: 0% | inhibition [30]: 0% | inhibition [31]: 10% | inhibition [32]: 10% | inhibition at 3 µM (CYP2D6): 0% | inhibition [33]: 10% | inhibition [34]: 10% | inhibition [35]: 0% | inhibition [36]: 10% | inhibition [37]: 20% | inhibition [38]: 10% | inhibition [39]: 0% | inhibition [40]: 10% | inhibition [41]: 10% | inhibition [42]: 10% | solubility kinetic [43]: 143 µg/mL (≈ 399 µM)
